# Target: T1, human A2a receptor (Homo sapiens, UniProt P29274)
# T1 construct: purchased Perkin-Elmer RBHA2AM400UA; host or cells: HEK293 cells, used as a membrane preparation
# Assay: A2a receptor competition binding assay (Scintillation Proximity)
# Conditions: A2a Ki, membranes from HEK293 cells expressing human A2a receptor; 0.5 nM tritiated ligand; Cheng-Prusoff
# In short: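 Ki values were obtained with the Cheng-Prusoff equation from competition curves against 0.5 nM tritiated antagonist, scintillation proximity counting after 1 h room-temperature incubation. Receptor came from HEK293 membranes pretreated with adenosine deaminase; compound final range 3000–0.15 nM, buffer Ca/Mg-free PBS with 10 mM MgCl2.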
# T1 sequence (P29274 whole entry): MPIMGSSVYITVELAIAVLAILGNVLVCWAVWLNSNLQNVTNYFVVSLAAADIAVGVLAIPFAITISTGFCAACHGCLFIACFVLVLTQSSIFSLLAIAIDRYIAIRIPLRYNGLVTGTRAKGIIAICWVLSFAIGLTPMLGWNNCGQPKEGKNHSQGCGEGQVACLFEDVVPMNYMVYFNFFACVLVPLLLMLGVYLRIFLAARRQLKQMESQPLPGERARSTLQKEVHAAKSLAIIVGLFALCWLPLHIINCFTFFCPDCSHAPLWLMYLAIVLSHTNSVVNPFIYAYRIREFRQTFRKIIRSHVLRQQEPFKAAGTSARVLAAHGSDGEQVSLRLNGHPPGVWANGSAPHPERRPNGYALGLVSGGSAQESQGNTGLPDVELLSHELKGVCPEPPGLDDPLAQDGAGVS
row,SMILES,Ki [nM]
1,"COc1cccc2c1nc(N)n1cc(C(=O)N3C4CCC3CC4)nc21 [Ex-218, (5-amino-7-methoxyimidazo[1,2-c]quinazolin-2-yl)((1s,4s)-7-azabicyclo[2.2.1]heptan-7-yl)methanone]",6.1

# Same assay, conditions: membranes from HEK293 cells expressing human A2a receptor; 0.5 nM tritiated ligand; Cheng-Prusoff; read-out: A2a Ki
row,Ki [nM],SMILES
1,160,"Nc1nc2ccccc2c2nc(-c3cccc(Br)c3)cn12 [Ex-105, 2-(3-bromophenyl)imidazo[1,2-c]quinazolin-5-amine]"
2,12,"Nc1nc2c(F)cccc2c2nc(Cc3cccc(-c4ccc5nonc5c4)c3)cn12 [Ex-77, 2-(3-(benzo[c][1,2,5]oxadiazol-5-yl)benzyl)-7-fluoroimidazo[1,2-c]quinazolin-5-amine]"
3,21,"Nc1nc2c(F)cccc2c2nc(C(=O)NCc3ccccc3CN3CCN(c4ccccn4)CC3)cn12 [Ex-246, 5-amino-7-fluoro-N-(2-((4-(pyridin-2-yl)piperazin-1-yl)methyl)benzyl)imidazo[1,2-c]quinazoline-2-carboxamide]"
4,100,"CCN1CCC2(CCN(C(=O)c3cn4c(N)nc5c(F)cccc5c4n3)C2)C1 (centres unmarked) [Ex-280, (5-amino-7-fluoroimidazo[1,2-c]quinazolin-2-yl)(7-ethyl-2,7-diazaspiro[4.4]nonan-2-yl)methanone]"
5,2.9,"Nc1nc2c(F)cccc2c2nc(C(=O)NCc3ccccc3OC3CCN(c4ccccn4)CC3)cn12 [Ex-263, 5-amino-7-fluoro-N-(2-((1 (pyridin-2-yl)piperidin-4-yl)oxy)benzyl)imidazo[1,2-c]quinazoline-2-carboxamide]"
6,7.7,"Nc1nc2c(F)ccc(Br)c2c2nc(Cc3ccccc3)cn12 [Ex-12, 2-benzyl-10-bromo-7-fluoroimidazo[1,2-c]quinazolin-5-amine]"
7,32,"CC(=O)N1CCC2(CCN(C(=O)c3cn4c(N)nc5c(F)cccc5c4n3)C2)C1 (centres unmarked) [Ex-274, 1-(7-(5-amino-7-fluoroimidazo[1,2-c]quinazoline-2-carbonyl)-2,7-diazaspiro[4.4]nonan-2-yl)ethan-1-one]"
8,43,"N#Cc1ccc(N2CCC3(CCN(C(=O)c4cn5c(N)nc6c(F)cccc6c5n4)C3)C2)c(F)c1 (centres unmarked) [Ex-275, 4-(7-(5-amino-7-fluoroimidazo[1,2-c]quinazoline-2-carbonyl)-2,7-diazaspiro[4.4]nonan-2-yl)-3-fluorobenzonitrile]"
9,9.2,"COc1cccc2c1nc(N)n1cc(CN3Cc4ccc(F)cc4C3)nc21 [Ex-123, 2-((5-fluoroisoindolin-2-yl)methyl)-7-methoxyimidazo[1,2-c]quinazolin-5-amine]"
10,21,"COc1cccc2c1nc(N)n1cc(C(=O)N3CCCCC3)nc21 [Ex-190, (5-amino-7-methoxyimidazo[1,2-c]quinazolin-2-yl)(piperidin-1-yl)methanone]"
11,91,"Nc1nc2c(F)cccc2c2nc(C(=O)N3CCc4cccc(CN5CCN(c6ccccn6)CC5)c4C3)cn12 [Ex-251, (5-amino-7-fluoroimidazo[1,2-c]quinazolin-2-yl)(8-((4-(pyridin-2-yl)piperazin-1-yl)methyl)-3,4-dihydroisoquinolin-2(1H)-yl)methanone]"
12,10.2,"Nc1nc2ccccc2c2nc(Cc3ccccc3CN3CCOCC3)cn12 [Ex-25, 2-(2-(morpholinomethyl)benzyl)imidazo[1,2-c]quinazolin-5-amine]"
13,640,"Nc1nc2c(F)cccc2c2nc(C(=O)N3CCc4cc(-c5ccc(F)c(F)c5)ccc4C3)cn12 [Ex-289, (5-amino-7-fluoroimidazo[1,2-c]quinazolin-2-yl)(6-(3,4-difluorophenyl)-3,4-dihydroisoquinolin-2(1H)-yl)methanone]"
14,49.6,"CC(=O)Nc1ccc2c(c1)CN(C(=O)c1cn3c(N)nc4c(F)cccc4c3n1)CC2 [Ex-244, N-(2-(5-amino-7-fluoroimidazo[1,2-c]quinazoline-2-carbonyl)-1,2,3,4-tetrahydroisoquinolin-7-yl)acetamide]"
15,40,"Nc1nc2c(F)cccc2c2nc(Cc3ccc(C(=O)NC4(c5ccccc5)CC4)cc3)cn12 [Ex-87, 4-((5-amino-7-fluoroimidazo[1,2-c]quinazolin-2-yl)methyl)-N-(1-phenylcyclopropyl)benzamide]"
16,152,"COc1cccc2c1nc(N)n1cc(C(=O)N3CCN4CCCC[C@@H]4C3)nc21 [Ex-245, (R)-(5-amino-7-methoxyimidazo[1,2-c]quinazolin-2-yl)(octahydro-2H-pyrido[1,2-a]pyrazin-2-yl)methanone]"
17,51,"Nc1nc2c(F)cccc2c2nc(CN3CCc4cc(CC(=O)Nc5ccccn5)ccc4C3)cn12 [Ex-129, 2-(2-((5-amino-7-fluoroimidazo[1,2-c]quinazolin-2-yl)methyl)-1,2,3,4-tetrahydroisoquinolin-6-yl)-N-(pyridin-2-yl)acetamide]"
18,29,"CC(C)(C)OC(=O)N1CCC2(CCN(C(=O)c3cn4c(N)nc5c(F)cccc5c4n3)C2)C1 (centres unmarked) [Ex-259, tert-butyl 7-(5-amino-7-fluoroimidazo[1,2-c]quinazoline-2-carbonyl)-2,7-diazaspiro[4.4]nonane-2-carboxylate]"
19,10000,"Nc1nc2ccccc2c2nc(C(=O)N3CCN(c4ccc(F)cc4F)CC3)cn12 [Ex-165, (5-aminoimidazo[1,2-c]quinazolin-2-yl)(4-(2,4-difluorophenyl)piperazin-1-yl)methanone]"
20,120,Nc1nc2c(F)cccc2c2nc(C(=O)N3CCc4cccc(CN5CCN(c6ccc(F)cc6F)CC5)c4C3)cn12 [Ex-247]
21,45,"Nc1nc2c(F)cccc2c2nc(CC3CCN(Cc4cccs4)CC3)cn12 [Ex-306, 7-fluoro-2-((1-(thio-phen-2-ylmethyl)-piperidin-4-yl)methyl)-imidazo[1,2-c]quina-zolin-5-amine]"
22,13,"Nc1nc2c(F)cccc2c2nc(Cc3cccc4c3OCCN4C(=O)Cc3ccccn3)cn12 [Ex-92, 1-(8-((5-amino-7-fluoroimidazo[1,2-c]quinazolin-2-yl)methyl)-2,3-dihydro-4H-benzo[b][1,4]oxazin-4-yl)-2-(pyridin-2-yl)ethan-1-one]"
23,61,"CC(=O)N1CCCC2(CCN(C(=O)c3cn4c(N)nc5c(F)cccc5c4n3)CC2)C1 [Ex-278, 1-(9-(5-amino-7-fluoroimidazo[1,2-c]quinazoline-2-carbonyl)-2,9-diazaspiro[5.5]undecan-2-yl)ethan-1-one]"
24,2.8,"COc1cccc2c1nc(N)n1cc(C(=O)N3CC4CC4C3)nc21 (centres unmarked) [Ex-235, (5-amino-7-methoxyimidazo[1,2-c]quinazolin-2-yl)(3-azabicyclo[3.1.0]hexan-3-yl)methanone]"
25,4.5,"CC(C)(C)OC(=O)N1CCN(c2ccccc2CNC(=O)c2cn3c(N)nc4c(F)cccc4c3n2)CC1 [Ex-256, tert-butyl 4-(2-((5-amino-7-fluoroimidazo[1,2-c]quinazoline-2-carboxamido)methyl)phenyl) piperazine-1-carboxylate]"
26,170,"Nc1nc2c(F)cccc2c2nc(CC3CCNCC3)cn12 [Ex-303, 7-fluoro-2-(piperidin-4-ylmethyl)imidazo-[1,2-c]quinazolin-5-amine]"
27,2.5,"CC(=O)N1CCN(c2ccccc2CNC(=O)c2cn3c(N)nc4c(F)cccc4c3n2)CC1 [Ex-264, N-(2-(4-acetylpiperazin-1-yl)benzyl)-5-amino-7-fluoroimidazo[1,2-c]quinazoline-2-carboxamide]"

# Same assay, conditions: value printed in the synthesis text as 'A2a=' without quantity name; read-out: A2a
row,Ki [nM],SMILES
1,8.4,"Nc1nc2c(F)cccc2c2nc(Cc3ccc4c(c3)CN(C(=O)c3ccccc3)C4)cn12 [L-005052550, (5-((5-amino-7-fluoroimidazo[1,2-c]quinazolin-2-yl)methyl)isoindolin-2-yl)(phenyl)methanone]"

# — patent publication US11498923B2 (Merck Sharp & Dohme Corp., priority 2017, dated 2022)
